Measurements from ChEMBL document CHEMBL3233010, “Design, synthesis and biological evaluation of novel 6-alkenylamides substituted of 4-anilinothieno[2,3-d]pyrimidines as irreversible epidermal growth factor receptor inhibitors” (Bioorg Med Chem, 2014).
pIC50: −log10 of the molar value. Active and inactive are the calls of the source. The rule behind the calls is not given here.

Key:
[1] = molecular target: T1, Epidermal growth factor receptor (Homo sapiens, UniProt P00533); experiment: Inhibition of EGF-induced EGFR autophosphorylation in human A431 cells at 0.1 umol/L pretreated for 2 hrs followed by EGF challenge by Western blotting analysis; format: cell-based; conditions: A-431
T1 sequence (P00533 whole entry): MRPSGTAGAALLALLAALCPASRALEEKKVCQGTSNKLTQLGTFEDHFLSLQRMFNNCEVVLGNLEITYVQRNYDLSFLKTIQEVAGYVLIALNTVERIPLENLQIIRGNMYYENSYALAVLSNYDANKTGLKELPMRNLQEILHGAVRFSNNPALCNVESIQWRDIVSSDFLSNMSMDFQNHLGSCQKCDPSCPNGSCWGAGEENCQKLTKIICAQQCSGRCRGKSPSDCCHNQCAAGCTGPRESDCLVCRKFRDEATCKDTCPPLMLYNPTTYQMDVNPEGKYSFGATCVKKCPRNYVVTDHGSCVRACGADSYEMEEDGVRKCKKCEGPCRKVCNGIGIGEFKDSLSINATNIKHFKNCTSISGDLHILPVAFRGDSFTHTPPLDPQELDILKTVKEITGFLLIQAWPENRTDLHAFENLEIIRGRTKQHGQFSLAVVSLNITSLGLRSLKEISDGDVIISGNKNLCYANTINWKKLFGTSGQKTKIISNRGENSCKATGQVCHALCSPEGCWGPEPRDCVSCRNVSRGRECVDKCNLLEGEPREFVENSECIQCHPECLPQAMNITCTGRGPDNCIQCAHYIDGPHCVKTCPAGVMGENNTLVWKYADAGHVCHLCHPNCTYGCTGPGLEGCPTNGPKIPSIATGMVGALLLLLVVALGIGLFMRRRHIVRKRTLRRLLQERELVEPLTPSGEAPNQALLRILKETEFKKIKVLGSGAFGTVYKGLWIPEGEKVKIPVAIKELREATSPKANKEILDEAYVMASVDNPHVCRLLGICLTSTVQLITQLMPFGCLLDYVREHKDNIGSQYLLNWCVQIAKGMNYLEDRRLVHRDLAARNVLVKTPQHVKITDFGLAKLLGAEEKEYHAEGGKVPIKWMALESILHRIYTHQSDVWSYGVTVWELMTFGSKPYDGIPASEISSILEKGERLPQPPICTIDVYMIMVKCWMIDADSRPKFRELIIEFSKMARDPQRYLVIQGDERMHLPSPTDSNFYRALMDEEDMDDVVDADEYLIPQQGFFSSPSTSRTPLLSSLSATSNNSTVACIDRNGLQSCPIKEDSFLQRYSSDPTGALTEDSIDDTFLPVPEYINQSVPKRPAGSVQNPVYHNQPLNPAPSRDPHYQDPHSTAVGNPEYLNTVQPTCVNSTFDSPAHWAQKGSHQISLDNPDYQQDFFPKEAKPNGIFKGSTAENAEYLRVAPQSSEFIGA

[2] = molecular target: Epidermal growth factor receptor (Homo sapiens, UniProt P00533, L858R/T790M); experiment: Inhibition of EGFR T790M/L858R double mutant (unknown origin) expressed in baculovirus expression system using Poly(Glu:Tyr)4:1 substrate after 60 mins by ELISA
Chain of Epidermal growth factor receptor (Homo sapiens, UniProt P00533, L858R/T790M) (P00533 25-1210 T790M/L858R limits assumed): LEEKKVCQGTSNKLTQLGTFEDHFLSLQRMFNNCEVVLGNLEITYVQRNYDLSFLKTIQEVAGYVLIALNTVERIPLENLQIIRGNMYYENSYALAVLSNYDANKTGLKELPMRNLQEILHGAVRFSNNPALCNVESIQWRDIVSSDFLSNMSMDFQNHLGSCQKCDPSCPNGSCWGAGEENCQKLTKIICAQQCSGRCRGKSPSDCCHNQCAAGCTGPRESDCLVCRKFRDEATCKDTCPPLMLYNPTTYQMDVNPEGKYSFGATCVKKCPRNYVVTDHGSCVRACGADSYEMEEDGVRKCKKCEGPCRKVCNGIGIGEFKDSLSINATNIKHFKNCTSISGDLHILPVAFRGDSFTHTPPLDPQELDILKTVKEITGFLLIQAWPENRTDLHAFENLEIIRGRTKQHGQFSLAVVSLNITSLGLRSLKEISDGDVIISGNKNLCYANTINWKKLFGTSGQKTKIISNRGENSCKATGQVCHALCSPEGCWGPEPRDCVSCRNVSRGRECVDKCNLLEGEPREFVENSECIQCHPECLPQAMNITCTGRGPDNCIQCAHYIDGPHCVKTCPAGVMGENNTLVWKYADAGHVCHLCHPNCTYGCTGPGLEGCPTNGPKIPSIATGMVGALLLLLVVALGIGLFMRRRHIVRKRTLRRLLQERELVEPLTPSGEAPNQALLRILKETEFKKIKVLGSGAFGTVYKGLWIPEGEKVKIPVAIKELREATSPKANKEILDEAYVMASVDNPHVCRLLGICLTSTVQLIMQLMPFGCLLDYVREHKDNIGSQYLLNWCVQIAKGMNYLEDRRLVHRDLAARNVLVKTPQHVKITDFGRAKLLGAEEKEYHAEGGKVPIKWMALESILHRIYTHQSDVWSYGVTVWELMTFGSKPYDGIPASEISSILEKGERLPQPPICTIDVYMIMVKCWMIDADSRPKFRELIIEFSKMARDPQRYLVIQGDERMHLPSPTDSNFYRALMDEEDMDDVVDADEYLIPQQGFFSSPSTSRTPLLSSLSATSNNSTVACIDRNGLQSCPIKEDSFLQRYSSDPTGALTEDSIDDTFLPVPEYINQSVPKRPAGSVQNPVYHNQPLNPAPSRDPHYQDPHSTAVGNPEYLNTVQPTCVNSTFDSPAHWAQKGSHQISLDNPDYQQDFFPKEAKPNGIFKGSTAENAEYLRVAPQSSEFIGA

[3] = molecular target: T1, Epidermal growth factor receptor; experiment: Inhibition of EGFR in human A431 cells assessed as inhibition of EGF-induced AKT phosphorylation at 0.1 to 1 umol/L pretreated for 2 hrs followed by EGF challenge by Western blotting analysis; format: cell-based; conditions: A-431
[4] = molecular target: T1, Epidermal growth factor receptor; experiment: Inhibition of EGFR in human A431 cells assessed as inhibition of EGF-induced ERK1/2 phosphorylation at 0.1 to 1 umol/L pretreated for 2 hrs followed by EGF challenge by Western blotting analysis; format: cell-based; conditions: A-431
[5] = system: Epidermal growth factor receptor (Homo sapiens), P00533 [L858R,T790M]; experiment: Inhibition of EGFR T790M/L858R double mutant in human NCI-H1975 cells assessed as inhibition of EGF-induced ERK1/2 phosphorylation pretreated for 2 hrs followed by EGF challenge by Western blotting analysis; format: cell-based
Chain of Epidermal growth factor receptor (Homo sapiens), P00533 [L858R,T790M] (P00533 whole entry T790M/L858R, looked up, the tested form may be a part): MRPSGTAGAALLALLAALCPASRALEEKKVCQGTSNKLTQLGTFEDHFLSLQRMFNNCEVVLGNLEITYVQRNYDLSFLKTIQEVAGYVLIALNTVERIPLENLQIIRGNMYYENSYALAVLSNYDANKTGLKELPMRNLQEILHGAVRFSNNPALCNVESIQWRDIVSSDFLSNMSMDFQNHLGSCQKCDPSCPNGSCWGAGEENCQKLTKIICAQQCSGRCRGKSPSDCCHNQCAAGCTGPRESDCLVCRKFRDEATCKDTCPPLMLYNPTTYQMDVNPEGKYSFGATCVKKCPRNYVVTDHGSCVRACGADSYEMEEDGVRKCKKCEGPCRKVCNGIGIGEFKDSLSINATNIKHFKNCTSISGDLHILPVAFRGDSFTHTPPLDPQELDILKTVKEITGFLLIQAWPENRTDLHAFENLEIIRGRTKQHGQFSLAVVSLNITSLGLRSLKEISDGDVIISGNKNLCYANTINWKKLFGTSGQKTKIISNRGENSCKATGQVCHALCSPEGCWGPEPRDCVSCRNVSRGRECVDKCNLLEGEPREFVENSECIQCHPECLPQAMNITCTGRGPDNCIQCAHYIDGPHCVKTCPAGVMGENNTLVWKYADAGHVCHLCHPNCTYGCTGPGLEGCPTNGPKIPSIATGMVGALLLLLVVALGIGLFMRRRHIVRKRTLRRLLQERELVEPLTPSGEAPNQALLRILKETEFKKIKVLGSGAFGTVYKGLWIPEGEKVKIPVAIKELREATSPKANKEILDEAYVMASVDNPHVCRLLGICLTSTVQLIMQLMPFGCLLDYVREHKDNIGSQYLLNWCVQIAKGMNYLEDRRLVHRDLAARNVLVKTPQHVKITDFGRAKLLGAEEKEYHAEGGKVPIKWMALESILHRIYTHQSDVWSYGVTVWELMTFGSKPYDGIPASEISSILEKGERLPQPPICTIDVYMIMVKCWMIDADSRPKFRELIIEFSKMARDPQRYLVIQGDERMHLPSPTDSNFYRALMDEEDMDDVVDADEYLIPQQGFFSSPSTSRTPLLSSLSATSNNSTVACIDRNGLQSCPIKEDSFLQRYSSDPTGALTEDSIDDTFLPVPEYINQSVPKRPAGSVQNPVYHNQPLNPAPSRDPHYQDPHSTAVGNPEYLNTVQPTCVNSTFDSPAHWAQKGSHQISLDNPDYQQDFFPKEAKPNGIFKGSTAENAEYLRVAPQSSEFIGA

[6] = molecular target: T1, Epidermal growth factor receptor; experiment: Inhibition of wild type EGFR domain (unknown origin) expressed in baculovirus expression system using Poly(Glu:Tyr)4:1 substrate after 60 mins by ELISA
[7] = molecular target: T1, Epidermal growth factor receptor; experiment: Inhibition of EGF-induced EGFR autophosphorylation in human A431 cells pretreated for 2 hrs followed by EGF challenge by Western blotting analysis; format: cell-based; conditions: A-431
NCI-H1975 = experiment: Antiproliferative activity against gefitinib-resistant human NCI-H1975 cells assessed as growth inhibition after 72 hrs by SRB assay; format: functional, cell-based; conditions: NCI-H1975, 72 h
[8] = system: Epidermal growth factor receptor (Homo sapiens), P00533 [L858R,T790M]; experiment: Inhibition of EGFR T790M/L858R double mutant in human NCI-H1975 cells assessed as inhibition of EGF-induced AKT phosphorylation pretreated for 2 hrs followed by EGF challenge by Western blotting analysis; format: cell-based
A-431 = experiment: Antiproliferative activity against human A431 cells assessed as growth inhibition after 72 hrs by SRB assay; format: functional, cell-based; conditions: A-431, 72 h
[9] = system: Epidermal growth factor receptor (Homo sapiens), P00533 [L858R,T790M]; experiment: Inhibition of EGF-induced EGFR T790M/L858R double mutant phosphorylation in human NCI-H1975 cells pretreated for 2 hrs followed by EGF challenge by Western blotting analysis; format: cell-based
[10] = molecular target: Vascular endothelial growth factor receptor 1 (Homo sapiens, UniProt P17948); experiment: Inhibition of recombinant Flt-1 (unknown origin) using Poly(Glu:Tyr)4:1 after 60 mins by ELISA
[11] = molecular target: Macrophage-stimulating protein receptor (Homo sapiens, UniProt Q04912); experiment: Inhibition of recombinant RON (unknown origin) using Poly(Glu:Tyr)4:1 after 60 mins by ELISA
[12] = molecular target: Receptor tyrosine-protein kinase erbB-4 (Homo sapiens, UniProt Q15303); experiment: Inhibition of recombinant ErbB4 (unknown origin) using Poly(Glu:Tyr)4:1 after 60 mins by ELISA
[13] = molecular target: Receptor tyrosine-protein kinase erbB-2 (Homo sapiens, UniProt P04626); experiment: Inhibition of ErbB2 (unknown origin) expressed in baculovirus expression system using Poly(Glu:Tyr)4:1 after 60 mins by ELISA
[14] = molecular target: Platelet-derived growth factor receptor beta (Homo sapiens, UniProt P09619); experiment: Inhibition of recombinant PDGFRbeta (unknown origin) using Poly(Glu:Tyr)4:1 after 60 mins by ELISA
[15] = molecular target: Mast/stem cell growth factor receptor Kit (Homo sapiens, UniProt P10721); experiment: Inhibition of recombinant c-Kit (unknown origin) using Poly(Glu:Tyr)4:1 after 60 mins by ELISA
[16] = molecular target: Platelet-derived growth factor receptor alpha (Homo sapiens, UniProt P16234); experiment: Inhibition of recombinant PDGFRalpha (unknown origin) using Poly(Glu:Tyr)4:1 after 60 mins by ELISA
[17] = molecular target: Insulin-like growth factor 1 receptor (Homo sapiens, UniProt P08069); experiment: Inhibition of IGF1R (unknown origin) expressed in baculovirus expression system using Poly(Glu:Tyr)4:1 after 60 mins by ELISA
Chain of Insulin-like growth factor 1 receptor (P08069 31-736 limits assumed): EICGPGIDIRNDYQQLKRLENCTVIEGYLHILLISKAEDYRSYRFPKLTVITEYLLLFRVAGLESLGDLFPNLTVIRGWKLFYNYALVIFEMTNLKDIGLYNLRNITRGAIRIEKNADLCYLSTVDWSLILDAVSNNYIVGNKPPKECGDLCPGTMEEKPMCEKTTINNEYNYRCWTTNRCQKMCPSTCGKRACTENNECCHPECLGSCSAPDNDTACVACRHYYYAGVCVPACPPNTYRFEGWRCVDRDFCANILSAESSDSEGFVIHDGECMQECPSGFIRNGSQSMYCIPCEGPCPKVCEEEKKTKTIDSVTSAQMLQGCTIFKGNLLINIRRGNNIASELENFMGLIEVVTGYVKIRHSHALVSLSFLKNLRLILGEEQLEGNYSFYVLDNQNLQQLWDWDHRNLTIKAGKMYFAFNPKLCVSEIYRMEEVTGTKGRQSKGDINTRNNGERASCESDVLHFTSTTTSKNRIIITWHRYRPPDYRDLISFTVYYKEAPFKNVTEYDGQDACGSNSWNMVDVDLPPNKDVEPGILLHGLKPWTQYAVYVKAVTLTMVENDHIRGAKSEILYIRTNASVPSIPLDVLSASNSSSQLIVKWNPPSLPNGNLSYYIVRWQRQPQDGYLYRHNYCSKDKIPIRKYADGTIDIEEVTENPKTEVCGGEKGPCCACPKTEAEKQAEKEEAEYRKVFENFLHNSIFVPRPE
Chain of Insulin-like growth factor 1 receptor (P08069 741-1367 limits assumed): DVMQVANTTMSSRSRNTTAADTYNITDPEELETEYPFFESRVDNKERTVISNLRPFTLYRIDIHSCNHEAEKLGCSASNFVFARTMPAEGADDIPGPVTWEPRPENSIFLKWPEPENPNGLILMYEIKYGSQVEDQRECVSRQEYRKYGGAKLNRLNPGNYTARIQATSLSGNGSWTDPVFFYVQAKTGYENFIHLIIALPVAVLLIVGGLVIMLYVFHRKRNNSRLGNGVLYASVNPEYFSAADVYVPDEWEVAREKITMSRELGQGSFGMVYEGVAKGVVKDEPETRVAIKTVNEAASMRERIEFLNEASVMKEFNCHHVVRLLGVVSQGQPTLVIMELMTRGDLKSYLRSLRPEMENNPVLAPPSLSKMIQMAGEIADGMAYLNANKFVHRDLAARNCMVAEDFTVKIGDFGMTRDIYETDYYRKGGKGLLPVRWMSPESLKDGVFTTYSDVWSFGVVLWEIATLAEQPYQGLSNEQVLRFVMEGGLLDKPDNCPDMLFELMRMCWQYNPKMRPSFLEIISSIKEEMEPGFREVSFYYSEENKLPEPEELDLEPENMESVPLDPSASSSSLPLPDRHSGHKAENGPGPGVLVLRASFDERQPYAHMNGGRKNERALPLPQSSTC

[18] = molecular target: Fibroblast growth factor receptor 1 (Homo sapiens, UniProt P11362); experiment: Inhibition of FGFR1 (unknown origin) expressed in baculovirus expression system using Poly(Glu:Tyr)4:1 after 60 mins by ELISA
[19] = molecular target: Tyrosine-protein kinase ABL1 (Homo sapiens, UniProt P00519); experiment: Inhibition of recombinant ABL (unknown origin) using Poly(Glu:Tyr)4:1 after 60 mins by ELISA
[20] = molecular target: Proto-oncogene tyrosine-protein kinase receptor Ret (Homo sapiens, UniProt P07949); experiment: Inhibition of recombinant RET (unknown origin) using Poly(Glu:Tyr)4:1 after 60 mins by ELISA
Ephrin type-A receptor 2 = Ephrin type-A receptor 2 (Homo sapiens, UniProt P29317); experiment: Inhibition of recombinant EPHA2 (unknown origin) using Poly(Glu:Tyr)4:1 after 60 mins by ELISA
[21] = molecular target: Vascular endothelial growth factor receptor 2 (Homo sapiens, UniProt P35968); experiment: Inhibition of KDR (unknown origin) expressed in baculovirus expression system using Poly(Glu:Tyr)4:1 after 60 mins by ELISA
[22] = system: Epidermal growth factor receptor (Homo sapiens), P00533 [L858R,T790M]; experiment: Inhibition of EGF-induced EGFR T790M/L858R double mutant phosphorylation in human NCI-H1975 cells at 0.1 umol/L pretreated for 2 hrs followed by EGF challenge by Western blotting analysis; format: cell-based

O=C(/C=C/CN1CCOCC1)Nc1cc2c(Nc3ccc(F)c(Cl)c3)ncnc2s1
inhibition [1]: Active
pIC50 [2]: 8.52
inhibition [3]: Active
inhibition [4]: Active
inhibition [5]: Dose-dependent effect
pIC50 [6]: 8.52
inhibition [7]: Dose-dependent effect
pIC50 (NCI-H1975): 4.93
inhibition [8]: Dose-dependent effect
pIC50 (A-431): 5.66
inhibition [9]: Dose-dependent effect

O=C(/C=C/CN1CC2CCC1C(=O)C2)Nc1cc2c(Nc3ccc(F)c(Cl)c3)ncnc2s1 (stereo not given)
pIC50 [10]: < 5.00
pIC50 [11]: < 5.00
inhibition [1]: Active
pIC50 [2]: 8.40
pIC50 [12]: 7.43
pIC50 [13]: 7.52
pIC50 [14]: < 5.00
pIC50 [15]: < 5.00
pIC50 [16]: < 5.00
inhibition [3]: Active
inhibition [4]: Active
pIC50 [17]: < 5.00
inhibition [5]: Dose-dependent effect
pIC50 [6]: 9.05
pIC50 [18]: < 5.00
inhibition [7]: Dose-dependent effect
pIC50 (NCI-H1975): 4.92
pIC50 [19]: < 5.00
inhibition [8]: Dose-dependent effect
pIC50 [20]: < 5.00
pIC50 (Ephrin type-A receptor 2): < 5.00
pIC50 [21]: < 5.00
pIC50 (A-431): 5.81
inhibition [9]: Dose-dependent effect

C=CC(=O)Nc1cc2c(Nc3ccc(F)c(Cl)c3)ncnc2s1
pIC50 [10]: < 5.00
pIC50 [11]: < 5.00
inhibition [1]: Active
pIC50 [2]: 7.62
pIC50 [12]: 8.40
pIC50 [13]: 7.40
pIC50 [14]: < 5.00
pIC50 [15]: < 5.00
pIC50 [16]: < 5.00
inhibition [3]: Active
inhibition [4]: Active
pIC50 [17]: < 5.00
inhibition [5]: Dose-dependent effect
pIC50 [6]: 7.80
pIC50 [18]: < 5.00
inhibition [7]: Dose-dependent effect
pIC50 (NCI-H1975): 5.52
pIC50 [19]: < 5.00
inhibition [8]: Dose-dependent effect
inhibition [22]: Active
pIC50 [20]: 5.79
pIC50 (Ephrin type-A receptor 2): < 5.00
pIC50 [21]: < 5.00
pIC50 (A-431): 6.14
inhibition [9]: Dose-dependent effect

O=C(/C=C/CNCC1COC1)Nc1cc2c(Nc3ccc(F)c(Cl)c3)ncnc2s1
pIC50 [2]: 7.66
pIC50 [6]: 8.00
pIC50 (NCI-H1975): 4.21
pIC50 (A-431): 5.41

O=C(CN1CCC(CCO)CC1)Nc1cc2c(Nc3ccc(F)c(Cl)c3)ncnc2s1
pIC50 [2]: < 5.00
pIC50 [6]: 6.27
pIC50 (NCI-H1975): 4.08
pIC50 (A-431): 5.02

CN1CCN(C/C=C/C(=O)Nc2cc3c(Nc4ccc(F)c(Cl)c4)ncnc3s2)CC1
pIC50 [2]: 8.52
pIC50 [6]: 6.91
pIC50 (NCI-H1975): 4.46
pIC50 (A-431): 5.35

CS(=O)(=O)CCNC/C=C/C(=O)Nc1cc2c(Nc3ccc(F)c(Cl)c3)ncnc2s1
pIC50 [2]: 7.17
pIC50 [6]: 8.52
pIC50 (NCI-H1975): 4.35
pIC50 (A-431): 4.72

CN(C)CCCNC/C=C/C(=O)Nc1cc2c(Nc3ccc(F)c(Cl)c3)ncnc2s1
pIC50 [2]: 9.15
pIC50 [6]: 5.92
pIC50 (NCI-H1975): < 4.00
pIC50 (A-431): 4.60

O=C(/C=C/CN1CCS(=O)(=O)CC1)Nc1cc2c(Nc3ccc(F)c(Cl)c3)ncnc2s1
pIC50 [2]: 8.15
pIC50 [6]: 7.54
pIC50 (NCI-H1975): 4.12
pIC50 (A-431): 5.06

CN1CCN(CC(=O)Nc2cc3c(Nc4ccc(F)c(Cl)c4)ncnc3s2)CC1
pIC50 [2]: < 5.00
pIC50 [6]: 5.47
pIC50 (NCI-H1975): 4.67
pIC50 (A-431): 5.77

COC(=O)CCCC(=O)Nc1cc2c(Nc3ccc(F)c(Cl)c3)ncnc2s1
pIC50 [2]: < 5.00
pIC50 [6]: < 5.00
pIC50 (NCI-H1975): < 4.00
pIC50 (A-431): 4.56

O=C(/C=C/CN1CCC(F)(F)CC1)Nc1cc2c(Nc3ccc(F)c(Cl)c3)ncnc2s1
inhibition [1]: Active
pIC50 [2]: 8.40
inhibition [3]: Active
inhibition [4]: Active
inhibition [5]: Dose-dependent effect
pIC50 [6]: 8.15
inhibition [7]: Dose-dependent effect
pIC50 (NCI-H1975): 5.29
inhibition [8]: Dose-dependent effect
pIC50 (A-431): 5.92
inhibition [9]: Dose-dependent effect

CN(C)CCCC(=O)Nc1cc2c(Nc3ccc(F)c(Cl)c3)ncnc2s1
pIC50 [2]: 5.74
pIC50 [6]: 6.10
pIC50 (NCI-H1975): 4.53
pIC50 (A-431): 5.46

O=C(/C=C/CN1CCC2(CC1)OCCO2)Nc1cc2c(Nc3ccc(F)c(Cl)c3)ncnc2s1
pIC50 [2]: 7.70
pIC50 [6]: 8.70
pIC50 (NCI-H1975): 5.18
pIC50 (A-431): 6.26

CCN(CC)CCN(C)C/C=C/C(=O)Nc1cc2c(Nc3ccc(F)c(Cl)c3)ncnc2s1
pIC50 [2]: 6.45
pIC50 [6]: 6.86
pIC50 (NCI-H1975): < 4.00
pIC50 (A-431): 5.37

O=C(/C=C/CN1CCCCC1)Nc1cc2c(Nc3ccc(F)c(Cl)c3)ncnc2s1
inhibition [1]: Active
pIC50 [2]: 8.70
inhibition [3]: Active
inhibition [4]: Active
inhibition [5]: Dose-dependent effect
pIC50 [6]: 8.05
inhibition [7]: Dose-dependent effect
pIC50 (NCI-H1975): 5.19
inhibition [8]: Dose-dependent effect
pIC50 (A-431): 6.89
inhibition [9]: Dose-dependent effect

COC(CN(C)C/C=C/C(=O)Nc1cc2c(Nc3ccc(F)c(Cl)c3)ncnc2s1)OC
pIC50 [2]: 7.21
pIC50 [6]: 8.70
pIC50 (NCI-H1975): 5.31
pIC50 (A-431): 6.37
